Experimental data reported in US10259799B2, “Hydroxyl pyranone compound, method for producing same, and cosmetics composition comprising compound” (AMOREPACIFIC CORPORATION, priority 2015, dated 2019).

Tested on: human adipose tissue derived mesenchymal stem cells (hAT-MSCs)
Assay: Adipocyte differentiation promoting effect: adiponectin in culture medium by ELISA
Assay type: cell-based
Conditions: for expression level of adiponectin (in words): hAT-MSCs with IDX, 14th day, comment on Table 1; for Adiponectin (pg/ml, Avg ± S.D.): medium collected on 14th day of differentiation
Experimental: In order to examine the adipocyte differentiation promoting effect of the compounds prepared in the Example, the following test was carried out.
Adiponectin is a typical protein hormone secreted from adipocytes. It has been reported that as adipocytes are differentiated, the expression of adiponectin is increased. Therefore, the adipocyte differentiation promoting effect was confirmed by measuring the amount of adiponectin expressed in the cell culture medium when treated with the novel compound of the present invention, which is an indicator of adipocyte differentiation promoting.
The adipocyte differentiation was performed by culturing human adipose tissue derived mesenchymal stem cells (hAT-MSCs) from Lonza Inc. (Walkersville, Md., USA) according to Lonza's guidelines. The adipocyte differentiation was carried out using the method recommended by Lonza Inc., except that the adipocyte differentiation of adipose-derived mesenchymal stem cells is induced by using troglitazone (TRO) instead of indomethacin. Specifically, the mesenchymal stem cells were differentiated into adipocytes by adding the medium for adipocyte differentiation (hereinafter referred to as IDX), which was prepared by mixing […] of insulin, […] of Dexamethasone (DEXA), 0.5 mM of isobutylmethylxanthine (IBMX) and […] of TRO, to the culture medium of mesenchymal stem cells, and then culturing it.
In order to determine the expression level of adiponectin, after the medium for adipocyte differentiation was collected on the 14th day of differentiation, the amount of adiponectin was quantified using the Adiponectin ELISA Kit (R & D systems, Cat. No. DY1065) (each data value was corrected by the control group). The specific measurement method using Adiponectin ELISA Kit was as follows.
First, the capture antibody was reacted in a 96-well plate, washed with washing buffer solution, and then the material shown in Table 1 below was added and reacted at room temperature for 2 hours. Thereafter, while washing three times every time when going through each step, the detection antibody, the HRP enzyme, the substrate solution, and the stop solution were added in order and reacted for the time indicated in the protocol. After the final reaction, the absorbance was measured at a wavelength of 450 nm using a spectrophotometer.

| SMILES | expression level of adiponectin (in words) | Adiponectin (pg/ml, Avg ± S.D.) [pg/mL] |
| --- | --- | --- |
| O=c1cc(CO)occ1O [Kojic acid] | not increased |  |
| O=C(/C=C/c1ccc2c(c1)OCO2)OCc1cc(=O)c(O)co1 [Seletinoid G] |  | 1505 ± 109 |
| CC1=C(/C=C/C(=O)OCc2cc(=O)c(O)co2)C(C)(C)CCC1 [compound of example, 3-(2,6,6-trimethyl-cyclohex-1-enyl)-propenoic acid 5-hydroxy-4-oxo-4H-pyran-2-ylmethyl ester] | increases almost similarly to that with Glibenclamide | 1804 ± 110 |
